Consider one compound from paper PMC7867324, “Design, Synthesis and Biological Evaluation of New Pyrimidine Derivatives as Anticancer Agents” (Molecules, 2021).

A value given as a limit tells only on which side of the number the result lay.

Data set [1] has as its system human cancer cells of different histotypes. More on the design: method as in PMID 30900116. The settings on record: cited from earlier work.
The subject of data set [2] is triple-negative breast cancer MDA-MB231. Nature of the data set: In vitro proliferation assay (sulforhodamine B), MDA-MB231. Type of data set: cell-based, human. To be noted: Homo sapiens, MDA-MB-231, 48 h, 48 h. Here is the method: (§1) The possible antitumoral activity of these new compounds was analyzed by the effects exerted on the proliferation of five human tumor cell lines of different histotype. Therefore, the modifications on cell viability and replication determined by the treatment with each single compound were evaluated. The following human tumor cell lines triple-negative breast cancer MDA-MB231, colon carcinoma HT-29, glioblastoma multiforme U-87 MG, tongue squamous cell carcinoma CAL27 and pharynx squamous cell carcinoma FaDu were treated for 24 and 48 h with 10, 20, 30, 40, 50 and 60 μM of each single compound.
(§2) Anti-proliferative activities are reported in Table 2 (compounds 1b–g, 3) and Table 3 (compounds 2a–f) in comparison with reference compound 1a.
(§3) The following human tumor cell lines were utilized in the present study: glioblastoma multiforme U-87 MG, triple-negative breast cancer MDA-MB231, colon carcinoma HT-29, tongue squamous cell carcinoma CAL27 and pharynx squamous cell carcinoma FaDu, all of which obtained from the American Type Culture Collection (Manassas, VA, USA). In addition, human dermal fibroblast primary cultures (HF) used as control of non-transformed cells, had been previously established in our laboratory.
(§4) The cells were grown at 37 °C and 5% CO2 in Dulbecco’s modified Eagle’s medium or RPMI 1640 medium supplemented with 10% fetal bovine serum, 2 mM glutamine and 50 U/mL penicillin-streptomycin (Sigma-Aldrich).
(§5) All compounds were solubilized in dimethylsulfoxide (DMSO) (Sigma) for a 10 mM stock solution and utilized to final concentrations from 100 nM to 60 μM for 24 and 48 h. Control cells were treated with equivalent amounts of DMSO in every experiment.
(§6) To determine cytotoxicity, a sulforhodamine B colorimetric assay was performed. Cells (1.5 × 10^4) were plated in a 96-well plate, grown for 24 h and then treated with different concentrations of each compound for 24 and 48 h at 37 °C. Cells were then fixed with 50% trichloroacetic acid for 1 h at 4 °C and stained for 30 min at room temperature with 0.4% sulforhodamine B in 1% acetic acid. Excess dye was removed by washing four times with 1% acetic acid. Protein-bound dye was dissolved in 10 mM Tris (pH 10), and optical density was determined at 510 nm using a microplate reader. Each experiment was performed three times and the media was calculated.

The nature of data set [3]: Cytotoxicity on normal cells (sulforhodamine B), HF. Type of data set: cell-based, human. To be noted: human, human dermal fibroblast primary cultures (HF), 48 h. Here is the method:
as §3, §4, §5, §6

The subject of another data set is colon carcinoma HT-29. Nature of the data set: In vitro proliferation assay (sulforhodamine B), HT-29. Type of data set: cell-based, human. The settings on record: Homo sapiens, HT-29, 48 h, 48 h. Here is the method:
as §1, §2, §3, §4, §5, §6

In data set [4] the test system is tongue squamous cell carcinoma CAL27. Nature of the data set: In vitro proliferation assay (sulforhodamine B), CAL27. Type of data set: cell-based, human. The settings on record: Homo sapiens, CAL-27, 48 h, 48 h. The procedure:
as §1, §2, §3, §4, §5, §6

In data set [5] the test system is pharynx squamous cell carcinoma FaDu. Nature of the data set: In vitro proliferation assay (sulforhodamine B), FaDu. Type of data set: cell-based, human. To be noted: Homo sapiens, FaDu, 48 h. Here is the method:
as §1, §2, §3, §4, §5, §6

Data set [6] deals with glioblastoma multiforme U-87 MG. Briefly: In vitro proliferation assay (sulforhodamine B), U-87 MG. The settings on record: Homo sapiens, U-87 MG, 48 h. Type of data set: cell-based, human. Here is the method: as §1, §2, §3, §4, §5, §6

As to `CCN(CC)CCCNc1cc(N)nc(Nc2cccc(Cl)c2)n1` [Compound 1a, N^2-(3-Chlorophenyl)-N^4-(3-(diethylamino)propyl)pyrimidine-2,4,6-triamine], the “effect on cell cycle” value in data set [1] (20 μM) was “upregulation of p21 and p27 and blockage of the cell cycle at G0/G1”. In addition, the induction of apoptosis result in data set [1] (30–50 μM) is “induced apoptosis”. Further, the 50% effective concentration (EC50) in data set [2] is 34.8 µM; in the data set with colon carcinoma HT-29, 51.8 µM; in data set [4], 54.2 µM; in data set [5] it was over 60 µM; in data set [6], over 60 µM. In data set [3], this compound came in with a cytotoxic concentration (CC50) at 48 h of over 60 µM.
